This test has as its system Muscle of Bronchus Removed from Guinea Pig. The settings on record: guinea pig trachea, 6.5×10^-6 M histamine; samples at 10^-5 M; area value of VIP--NH2 taken as 100 %. From the text: A. Determination on Relaxation of Muscle of Bronchus Removed from Guinea Pig
The juglar vein of a male guinea pig weighing 300 g or more is cut, causing the guinea pig to be bled to death. The guinea pig undergoes thoracotomy. Immediately after the thoracotomy, 3 cm of the trachea is taken out. The trachea is immediately put in a Krebs solution. It is then cut into seven equal rings, and the cartilages are connected to one another with a cotton yarn to form a chain. Subsequently, the smooth muscle parts and cartilages opposite them are cut, so that the smooth muscle parts can be connected to one another. The preparation thus prepared is placed in an isothermic glass cell having an internal capacity of about 7 ml and suspended from above. The lower part of the preparation is fixed, while the upper part is connected to an isometric transducer, to which 0.5 g of a load has been applied, in order to determine the relaxation reaction. Sufficient amounts of 95 % oxygen and 5 % carbon dioxide gas are blown into the preparation. Further, a Krebs solution of 37° C. containing 6.5×10^-6 M histamine is dropped on the preparation from above at a flow rate of 3.3 ml/min. The relaxation reaction takes place to an extent proportional to the amount of a sample added to the dropped solution. By utilizing this relationship, the relaxation activity against bronchial smooth muscle with respect to the substance of the present invention is compared with that of VIP--NH2. VIP--NH2 is used at a concentration of 10^-5 M and dropped in amounts of 40 μl and 80 μl. The substance of the present invention is also used at a concentration of 10^- 5 M and dropped in amounts of 10 μl and 20 μl. The value of the area (height×time) in relaxation of each case is determined. The specific activities are obtained by taking the area value of VIP--NH2 as 100 % and determining the relative ratio of the area value of each use. Thus, the relaxation reactions are compared by the four-point assay method, with respect to the above-mentioned determination method, reference may be made to the following articles (e) and (f): […]

In the case of `CC[C@H](C)[C@H](NC(=O)[C@H](CO)NC(=O)[C@H](CC(N)=O)NC(=O)[C@H](CC(C)C)NC(=O)[C@H](Cc1ccc(O)cc1)NC(=O)[C@H](CCCCN)NC(=O)[C@H](CCCCN)NC(=O)[C@@H](NC(=O)[C@H](C)NC(=O)[C@H](CCSC)NC(=O)[C@H](CCC(N)=O)NC(=O)[C@H](CCCCN)NC(=O)[C@H](CCCNC(=N)N)NC(=O)[C@H](CC(C)C)NC(=O)[C@H](CCCNC(=N)N)NC(=O)[C@@H](NC(=O)[C@H](Cc1ccc(O)cc1)NC(=O)[C@H](CC(N)=O)NC(=O)[C@H](CC(=O)O)NC(=O)[C@@H](NC(=O)[C@H](Cc1ccccc1)NC(=O)[C@@H](NC(=O)[C@H](C)NC(=O)[C@H](CC(=O)O)NC(=O)[C@H](CO)NC(=O)[C@@H](N)Cc1c[nH]cn1)C(C)C)[C@@H](C)O)[C@@H](C)O)C(C)C)C(=O)N[C@@H](CC(C)C)C(=O)N[C@@H](CC(N)=O)C(N)=O` [VIP - NH2], the “A: specific activity (%) obtained by method A (relaxation of bronchial smooth muscle, area value relative to VIP-NH2)” value was determined as 100%. Then `CC[C@H](C)[C@H](NC(=O)[C@H](CO)NC(=O)[C@H](CC(N)=O)NC(=O)[C@H](CC(C)C)NC(=O)[C@H](Cc1ccc(O)cc1)NC(=O)[C@H](CCCCN)NC(=O)[C@H](CCCCN)NC(=O)[C@@H](NC(=O)[C@H](C)NC(=O)[C@H](CCSC)NC(=O)[C@H](CCC(N)=O)NC(=O)[C@H](CCCCN)NC(=O)[C@H](CCCNC(=N)N)NC(=O)[C@H](CC(C)C)NC(=O)[C@H](CCCNC(=N)N)NC(=O)[C@@H](NC(=O)[C@H](Cc1ccc(O)cc1)NC(=O)[C@H](CC(N)=O)NC(=O)[C@H](CC(=O)O)NC(=O)[C@@H](NC(=O)[C@H](Cc1ccccc1)NC(=O)[C@@H](NC(=O)[C@H](C)NC(=O)[C@H](CC(=O)O)NC(=O)[C@H](CO)NC(=O)[C@@H](N)Cc1c[nH]cn1)C(C)C)[C@@H](C)O)[C@@H](C)O)C(C)C)C(=O)N[C@@H](CC(C)C)C(=O)N[C@@H](CC(N)=O)C(=O)O` [VIP - OH], with 60%; and `CC[C@H](C)[C@H](NC(=O)[C@H](CO)NC(=O)[C@H](CC(N)=O)NC(=O)[C@H](CC(C)C)NC(=O)[C@H](Cc1ccc(O)cc1)NC(=O)[C@H](CCCCN)NC(=O)[C@H](CCCCN)NC(=O)[C@@H](NC(=O)[C@H](C)NC(=O)[C@H](CCSC)NC(=O)[C@H](CCC(N)=O)NC(=O)[C@H](CCCCN)NC(=O)[C@H](CCCNC(=N)N)NC(=O)[C@H](CC(C)C)NC(=O)[C@H](CCCNC(=N)N)NC(=O)[C@@H](NC(=O)[C@H](Cc1ccc(O)cc1)NC(=O)[C@H](CC(N)=O)NC(=O)[C@H](CC(=O)O)NC(=O)[C@@H](NC(=O)[C@H](Cc1ccccc1)NC(=O)[C@@H](NC(=O)[C@H](C)NC(=O)[C@H](CC(=O)O)NC(=O)[C@H](CO)NC(=O)[C@@H](N)Cc1c[nH]cn1)C(C)C)[C@@H](C)O)[C@@H](C)O)C(C)C)C(=O)N[C@@H](CC(C)C)C(=O)N[C@@H](CC(N)=O)C(=O)NCC(=O)N[C@@H](CCCCN)C(=O)O` [X=Met Y=Lys--OH], with 300%.

Values taken from patent US4822774A, “Physiologically active peptide” (Eisai Co., Ltd., priority 1986, dated 1989).
